Reference: patent publication US5780472A, “Piperazine derivatives and methods for the preparation thereof and compositions containing the same” (Samjin Pharmaceuticazl Co., Ltd., priority 1995, dated 1998)
Values after ≈ are worked out from the molar mass of the structure shown. Counter-ions that a name gives are not always drawn.

Key:
[1] = tested on: P388 (mouse lymphoid neoplasma cell); assay: In vitro antitumor effects against animal leukemia cells (dye exclusion assay), P388; format: cell-based; conditions: 50% cell growth inhibition, 37° C., trypan blue; for ED50: 48 hours, 2880 min; for IC50: Mus musculus, P388, 48 h, read-out: ED50 (the source's name)
Method: P388 (mouse lymphoid neoplasma cell)
(§1) B. Method of Experiment(Dye Exclusion Assay)
(§2) 2) Sample drugs diluted with log dose were added into the cells, and it were cultured at 37° C., for 48 hours, in […] incubater, and then viable cell number was measured, Viable cell number was measured with dye exclusion test using trypan blue.

[2] = tested on: ICR mice; assay: Acute toxicity test (LD50), Litchfield-Wilcoxon method; format: in vivo, mouse; set-up: unit not given here; conditions: male ICR mice, 14 days
[3] = tested on: L1210 (mouse leukemia cell); assay: In vitro antitumor effects against animal leukemia cells (dye exclusion assay), L1210; format: cell-based; conditions: 50% cell growth inhibition, 37° C., trypan blue; for ED50: 48 hours, hydrochloride, 2880 min; for IC50: Mus musculus, L1210, 48 h, read-out: ED50 (the source's name)
Method: L1210(mouse leukemia cell)
as §1, §2

[4] = tested on: L1210 and P388 mouse cancer cells; assay: In vitro antitumor activity against L1210 and P388 compared with mitomycin C (dye exclusion assay); format: cell-based; conditions: in words
Method: as §1
1) L-1210 and P388 cells that were cultured in RPMI 1640 media containing 10% FBS were regulated as the cell concentration of 1×10^6 cells/ml.
as §2
3) The concentration of sample compounds of 50% cell growth inhibition compared with standard group was determined as IC50.

[5] = tested on: 5 kinds of human solid cancer cell lines; assay: In vitro antitumor activity against 5 human solid cancer cell lines compared with cisplatin (SRB assay); format: cell-based; conditions: in words
Method: Antitumor activities of the compounds of present invention were tested. Antitumor activities of compounds of the present invention were tested in vitro against 5 kinds of human tumor cell lines and 2 kinds of leukemia tumor cell lines. The method of in vitro test is as follows.
B. Method of test(SRB Assay Method)
a. Human solid tumor cell lines, […](non-small lung cell), SKMEL-2(melanoma), HCT-15(colon), SKOV-3(ovarian), XF-498(CNS) were cultured at 37° C., in 5% CO2 incubater using the RPMI 1640 media containing 10% FBS, while they were transfer-cultured successively once or twice per week. Cell cultures were dissolved into the solution of 0.25% trypsin and 3 mM CDTA PBS(-) and then cells were separated from media which the cells were sticked on.
b. 5×10^3 -2×10^4 cells were added into each well of 96-well plate and cultured in 5% CO2 incubater, at 37° C., for 24 hours.
c. Each sample drugs was dissolved in a small quantity of DMSO, and diluted to concentrations prescribed in experiment with media, and then the final concentration of DMSO was controlled below 0.5%.
d. A medium of each well cultured for 24 hours as above b., was removed by aspiration. 200 μl of drug samples prepared in c. was added into each well and the wells were cultured for 48 hours. Tz(time zero) plates were collected at the point of time drugs were added.
e. After Tz plates and plates were treated with cell fixing by TCA of SRB assay method, staining of 0.4% SRB solution, washing with 1% acetic acid, OD values were measured at 520 nm, following elution of dye with 10 mM Tris solution.
e. If T≥Tz, cellular response function was calculated with 100×(T-Tz)/(C-Tz), and if T<Tz, with 100×(T-Tz)/Tz.

[6] = tested on: mouse leukemia P388 cells; assay: In vivo antitumor effects against mouse leukemia P388 cells; conditions: for T/C (%) etc.: days 1, 5, 9, median survival time; for antitumor effect in P388 mice: in words
Method: 1) Leukemia P388 cells being transfer-cultured succesively in DBA/2 mouse, were grafted i.p. into each mouse of a group comprising 8 mice of 6 week old BDFI mouse as the dose of 1×10^6 cells/0.1 ml.
2) Sample drugs were dissolved in PBS or suspended in 0.5% Tween 80, and then injected into abdominal cavity of mouse at each prescribed concentration on days 1, 5, 9, respectively.
3) With observation every day, survival times of tested mice were measured. Antitumor activities was determined in such a manner that the increasing ratio(T/C %) of average survival days of drug-treated groups compared with the control group was calculated using the mean survival times of each tested groups.
* Experimental Conditions for Mouse P388
Animal: BDFI mouse (8 mice/group)
Inoculum size: 10^6 cells/mouse
Treatment time: days 1, 5, 9
Parameter: median survival time

| Structure (SMILES) | ED50 ([1]; hydrochloride) [µg/mL] | LD50 ([2]; i.p.) | ED50 [3] [µg/mL] | antitumor activities compared with mitomycin C [4] | antitumor activities compared with cisplatin [5] | IC50 [1] [µg/mL] | LD50 ([2]; p.o.) | IC50 [3] [µg/mL] | T/C (%) etc. ([6]; 50 mg/kg i.p.) [%] | T/C (%) etc. ([6]; 100 mg/kg i.p.) [%] | antitumor effect in P388 mice [6] | ED50 [1] [µg/mL] |
| --- | --- | --- | --- | --- | --- | --- | --- | --- | --- | --- | --- | --- |
| CCc1cc(NC(=O)N2CCN(c3ccccc3OC)CC2)c(OC)nc1C [Example 148, 1-[(5-ethyl-2-methoxy-6-methylpyridin-3-yl)aminocarbonyl]-4-[(2-methoxyphenyl)piperazine-2-yl]piperazine salt of hydrochloride] | 1.3 | 425.3 | 1.5 | same or more excellent antitumor activities |  |  |  |  |  |  |  |  |
| CCc1cc(NC(=O)N2CCN(c3cccc(Cl)c3)CC2)c(OC)nc1C [Example 149, 1-[(5-ethyl-2-methoxy-6-methylpyridin-3-yl)aminocarbonyl]-4-(3-chlorophenyl)piperazine salt of hydrochloride] |  | 410.5 | 0.9 | same or more excellent antitumor activities | superior antitumor activities to those of cisplatin |  |  |  |  |  |  |  |
| COc1ccccc1N1CCN(C(=O)Nc2cc(C)c(C)nc2OC)CC1 [Example 108] |  | > 2,000 |  | same or more excellent antitumor activities | superior antitumor activities to those of cisplatin | 0.9 (≈ 2.43 µM) | > 3,110 | 0.8 (≈ 2.16 µM) |  |  |  |  |
| CCc1cc(NC(=O)N2CCN(c3cc(C)cc(C)c3)CC2)c(OC)nc1C [Example 29, 1-[(5-ethyl-2-methoxy-6-methylpyrdin-3-yl)aminocarbonyl]-4-(3,5-dimethylphenyl)piperazine] |  |  |  | same or more excellent antitumor activities | superior antitumor activities to those of cisplatin | 0.5 (≈ 1.31 µM) |  | 0.4 (≈ 1.05 µM) | 136.4 | 190.9 | significant antitumor effect |  |
| COc1cc(OC)cc(N2CCN(C(=O)Nc3cc(C)c(C)nc3OC)CC2)c1 [Example 118, 1-[(5,6-dimethyl-2-methoxypyridin-3-yl)aminocarbonyl]-4-(3,5-dimethoxyphenyl)piperazine] |  | 182.8 |  | same or more excellent antitumor activities | superior antitumor activities to those of cisplatin | 0.06 (≈ 0.15 µM) | 571.8 | 0.06 (≈ 0.15 µM) |  |  |  |  |
| CCc1cc(NC(=O)N2CCN(c3ccccc3OC)CC2)c(OC)nc1C [Example 1, 1-[(5-ethyl-2-methoxy-6-methylpyridin-3-yl)aminocarbonyl]-4-(2-methoxyphenyl)piperazine] |  |  |  |  | superior antitumor activities to those of cisplatin |  |  | 1.6 (≈ 4.16 µM) | 109.1 | 134.6 | significant antitumor effect | 0.6 (≈ 1.56 µM) |
| CCc1cc(NC(=O)N2CCN(c3cc(Cl)ccc3OC)CC2)c(OC)nc1C [Example 49, 1-[(5-ethyl-2-methoxy-6-methylpyridin-3-yl)aminocarbonyl]-4-(5-chloro-2-methioxyphenyl)piperazine] |  |  |  | same or more excellent antitumor activities | superior antitumor activities to those of cisplatin | 0.6 (≈ 1.43 µM) |  | 1.3 (≈ 3.1 µM) |  |  |  |  |
